# Assay results reported in ChEMBL document CHEMBL2021794, “Synthesis, σ₁, σ₂-receptors binding affinity and antiproliferative action of new C1-substituted adamantanes” (Bioorg Med Chem, 2012).
# Tests used:
# HL-60(TB) = experiment: Growth inhibition of human HL-60(TB) cells after 48 hrs by SRB assay; type: functional; settings: HL-60, 48 h
# NCI-H69 = experiment: Growth inhibition of human NCI-H69 cells after 48 hrs by SRB assay; type: functional; settings: NCI-H69, 48 h; for CC50: read-out: LC50 (the source's name)
# HCT-15 = experiment: Growth inhibition of human HCT15 cells after 48 hrs by SRB assay; type: functional; settings: HCT-15, 48 h
# MIA PaCa-2 [1] = experiment: Growth inhibition of human MIAPaCa2 cells after 48 hrs by SRB assay; type: functional; settings: MIA PaCa-2, 48 h; for CC50: read-out: LC50 (the source's name)
# [2] = (§1) Growth inhibition of HUVEC cells after 48 hrs by SRB assay; type: cell-based; settings: human, HUVEC cells
# HUVEC = experiment: as §1; type: cell-based; settings: human, huvec, 48 h
# H69AR = experiment: Growth inhibition of human H69AR cells after 48 hrs by SRB assay; type: functional; settings: for CC50: read-out: LC50 (the source's name)
# [3] = Growth inhibition of human MSC cells after 48 hrs by SRB assay; type: cell-based; settings: for GI50 at 48 h: MSC cells; for LC50 / TGI: msc, 48 h
# SF-295 = experiment: Growth inhibition of human SF295 cells after 48 hrs by SRB assay; type: functional; settings: SF-295, 48 h; for CC50: read-out: LC50 (the source's name)
# MCF7 = experiment: Growth inhibition of human MCF7 cells after 48 hrs by SRB assay; type: functional; settings: MCF7, 48 h; for CC50: read-out: LC50 (the source's name)
# HCT-116 = experiment: Growth inhibition of human HCT116 cells after 48 hrs by SRB assay; type: functional; settings: HCT-116, 48 h; for CC50: read-out: LC50 (the source's name)
# BXPC-3 [4] = experiment: Antitumor activity against human BxPC3 cells xenografted in SCID mouse assessed as reduction in tumor volume at 17 mg/kg, ip twice a week; type: functional; settings: BXPC-3, ip, route intraperitoneal
# OVCAR-5 = experiment: Growth inhibition of human OVCAR5 cells after 48 hrs by SRB assay; type: functional; settings: OVCAR-5, 48 h; for CC50: read-out: LC50 (the source's name)
# SK-HEP1 = experiment: Growth inhibition of human SKHEP1 cells after 48 hrs by SRB assay; type: functional; settings: SK-HEP1, 48 h; for CC50: read-out: LC50 (the source's name)
# PC-3 = experiment: Growth inhibition of human PC3 cells after 48 hrs by SRB assay; type: functional; settings: PC-3, 48 h; for CC50: read-out: LC50 (the source's name)
# NCI-H460 = experiment: Growth inhibition of human NCI-H460 cells after 48 hrs by SRB assay; type: functional; settings: NCI-H460, 48 h
# BXPC-3 [5] = experiment: Growth inhibition of human BxPC3 cells after 48 hrs by SRB assay; type: functional; settings: BXPC-3, 48 h
# DU-145 = experiment: Growth inhibition of human DU145 cells after 48 hrs by SRB assay; type: functional; settings: DU-145, 48 h; for CC50: read-out: LC50 (the source's name)
# BXPC-3 [6] = experiment: Antitumor activity against human BxPC3 cells xenografted in SCID mouse assessed as tumor weight at 17 mg/kg, ip twice a week (reference value: 723 +/- 45 mg); type: functional; settings: route intraperitoneal
# U-251 = experiment: Growth inhibition of human U251 cells after 48 hrs by SRB assay; type: functional; settings: U-251, 48 h; for CC50: read-out: LC50 (the source's name)
# DMS-114 = experiment: Growth inhibition of human DMS114 cells after 48 hrs by SRB assay; type: functional; settings: DMS-114, 48 h; for CC50: read-out: LC50 (the source's name)
# IGROV-1 = experiment: Growth inhibition of human IGROV1 cells after 48 hrs by SRB assay; type: functional; settings: IGROV-1, 48 h; for CC50: read-out: LC50 (the source's name)
# MIA PaCa-2 [7] = experiment: Antitumor activity against human MIAPaCa2 cells xenografted in SCID mouse assessed as tumor weight at 70 mg/kg, ip twice a week (reference value: 1225 +/- 308 mg); type: functional; settings: route intraperitoneal
# MIA PaCa-2 [8] = experiment: Antitumor activity against human MIAPaCa2 cells xenografted in SCID mouse assessed as reduction in tumor volume at 70 mg/kg, ip twice a week; settings: MIA PaCa-2, ip, read-out: INH
# [9] = target: Sigma non-opioid intracellular receptor 1 (Homo sapiens, UniProt Q99720); experiment: Displacement of [3H](+)pentazocine from sigma-1 receptor expressed in human Jurkat cell membranes after 2 hrs by liquid scintillation spectroscopy
# [10] = Selectivity ratio of IC50 for human sigma-1 receptor to IC50 for rat sigma-2 receptor
# [11] = Displacement of [3H](+)1-DTG from sigma-2 receptor expressed in rat cerebral cortex membranes after 2 hrs by liquid scintillation spectroscopy; type: cell membranes, Membrane
# LOX IMVI = experiment: Growth inhibition of human LOXIMVI cells after 48 hrs by SRB assay; type: functional
# SF-268 = experiment: Growth inhibition of human SF268 cells after 48 hrs by SRB assay; type: functional; settings: SF-268, 48 h
# [12] = Displacement of [3H]BTX-B from Na+ channel site 2 after 60 mins by liquid scintillation spectroscopy
# NHDF = experiment: (§2) Growth inhibition of NHDF cells after 48 hrs by SRB assay; type: cell-based; settings: human, nhdf, 48 h
# [13] = as §2; type: cell-based; settings: human, NHDF cells
# Chain of Sigma non-opioid intracellular receptor 1 (Q99720 whole entry): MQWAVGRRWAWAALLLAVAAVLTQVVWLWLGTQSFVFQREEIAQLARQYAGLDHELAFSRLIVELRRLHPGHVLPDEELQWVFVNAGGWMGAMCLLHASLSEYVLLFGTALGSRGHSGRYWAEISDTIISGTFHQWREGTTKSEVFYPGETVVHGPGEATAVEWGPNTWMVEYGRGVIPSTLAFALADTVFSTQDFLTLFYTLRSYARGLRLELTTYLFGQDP
compound,measurement,setting,value
O=c1[nH]cc(F)c(=O)[nH]1 [FLUOROURACIL],GI50,HL-60(TB),100 µM
same,TGI,HL-60(TB),100 µM
same,GI50,NCI-H69,100 µM
same,TGI,NCI-H69,100 µM
same,CC50,NCI-H69,100 µM
same,GI50,HCT-15,21 µM
same,TGI,HCT-15,100 µM
same,GI50,MIA PaCa-2 [1],30 µM
same,TGI,MIA PaCa-2 [1],100 µM
same,CC50,MIA PaCa-2 [1],100 µM
same,GI50 at 48 h,[2],9.72 µM
same,LC50,HUVEC,100 µM
same,TGI,HUVEC,100 µM
same,GI50,H69AR,100 µM
same,TGI,H69AR,100 µM
same,CC50,H69AR,100 µM
same,GI50 at 48 h,[3],8.92 µM
same,LC50,[3],100 µM
same,TGI,[3],86.06 µM
same,GI50,SF-295,76 µM
same,TGI,SF-295,100 µM
same,CC50,SF-295,100 µM
same,GI50,MCF7,9.9 µM
same,TGI,MCF7,100 µM
same,CC50,MCF7,100 µM
same,GI50,HCT-116,9.9 µM
same,TGI,HCT-116,100 µM
same,CC50,HCT-116,100 µM
same,inhibition in vivo at 17 mg/kg,BXPC-3 [4],3.25%
same,GI50,OVCAR-5,20 µM
same,TGI,OVCAR-5,100 µM
same,CC50,OVCAR-5,100 µM
same,GI50,SK-HEP1,6.3 µM
same,TGI,SK-HEP1,100 µM
same,CC50,SK-HEP1,100 µM
same,GI50,PC-3,21 µM
same,TGI,PC-3,100 µM
same,CC50,PC-3,100 µM
same,GI50,NCI-H460,6.5 µM
same,TGI,NCI-H460,100 µM
same,GI50,BXPC-3 [5],8.2 µM
same,TGI,BXPC-3 [5],100 µM
same,GI50,DU-145,9.37 µM
same,TGI,DU-145,100 µM
same,CC50,DU-145,100 µM
same,Activity,BXPC-3 [6],700%
same,GI50,U-251,82 µM
same,TGI,U-251,100 µM
same,CC50,U-251,100 µM
same,GI50,DMS-114,100 µM
same,TGI,DMS-114,100 µM
same,CC50,DMS-114,100 µM
same,GI50,IGROV-1,9.1 µM
same,TGI,IGROV-1,100 µM
same,CC50,IGROV-1,100 µM
Nc1ccn([C@@H]2O[C@H](CO)[C@@H](O)C2(F)F)c(=O)n1 [GEMCITABINE],GI50,MIA PaCa-2 [1],35.8 µM
same,TGI,MIA PaCa-2 [1],100 µM
same,CC50,MIA PaCa-2 [1],100 µM
same,Activity,MIA PaCa-2 [7],537 mg
same,inhibition in vivo at 70 mg/kg,MIA PaCa-2 [8],56.2%
same,GI50,BXPC-3 [5],3.64 µM
same,TGI,BXPC-3 [5],9.05 µM
CCN1CCN(c2ccc(C(c3ccccc3)C34CC5CC(CC(C5)C3)C4)cc2)CC1 (stereo not drawn),IC50,[9],0.0029 µM
same,GI50,HL-60(TB),6.39 µM
same,LC50,HL-60(TB),100 µM
same,TGI,HL-60(TB),100 µM
same,GI50,NCI-H69,5.54 µM
same,CC50,NCI-H69,100 µM
same,GI50,HCT-15,6.63 µM
same,LC50,HCT-15,100 µM
same,TGI,HCT-15,41.2 µM
same,Ratio IC50,[10],1.4
same,GI50 at 48 h,[2],3.56 µM
same,LC50,HUVEC,9.88 µM
same,TGI,HUVEC,6.72 µM
same,IC50,[11],0.004 µM
same,GI50,LOX IMVI,3.79 µM
same,LC50 (concentration killing 50% of cells),LOX IMVI,8.4 µM
same,TGI,LOX IMVI,6.09 µM
same,GI50,H69AR,4.75 µM
same,TGI,H69AR,7.82 µM
same,CC50,H69AR,100 µM
same,GI50 at 48 h,[3],19.5 µM
same,LC50,[3],100 µM
same,TGI,[3],72 µM
same,GI50,SF-268,8.24 µM
same,TGI,SF-268,53.5 µM
same,CC50,SF-268; read-out: LC50 (the source's name),100 µM
same,GI50,SF-295,19.6 µM
same,TGI,SF-295,50.9 µM
same,CC50,SF-295,82.2 µM
same,GI50,MCF7,9.23 µM
same,TGI,MCF7,59 µM
same,CC50,MCF7,100 µM
same,GI50,HCT-116,6.39 µM
same,TGI,HCT-116,32.9 µM
same,CC50,HCT-116,100 µM
same,IC50,[12],0.7 µM
same,GI50,OVCAR-5,6 µM
same,TGI,OVCAR-5,24.5 µM
same,CC50,OVCAR-5,77.8 µM
same,GI50,SK-HEP1,3.98 µM
same,TGI,SK-HEP1,7.24 µM
same,CC50,SK-HEP1,29.8 µM
same,GI50,PC-3,9.01 µM
same,TGI,PC-3,65.6 µM
same,CC50,PC-3,100 µM
same,GI50,NCI-H460,5.77 µM
same,LC50 (concentration killing 50% of cells),NCI-H460,100 µM
same,TGI,NCI-H460,9.44 µM
same,GI50,BXPC-3 [5],7.07 µM
same,LC50,BXPC-3 [5],> 100 µM
same,TGI,BXPC-3 [5],41.6 µM
same,GI50,DU-145,17.8 µM
same,TGI,DU-145,58.7 µM
same,CC50,DU-145,99.6 µM
same,GI50,U-251,4.23 µM
same,TGI,U-251,7.42 µM
same,CC50,U-251,12 µM
same,LC50,NHDF,100 µM
same,TGI,NHDF,100 µM
same,GI50 at 48 h,[13],7.43 µM
same,GI50,DMS-114,6.05 µM
same,TGI,DMS-114,11.6 µM
same,CC50,DMS-114,20.3 µM
same,GI50,IGROV-1,8 µM
same,TGI,IGROV-1,49 µM
same,CC50,IGROV-1,100 µM
